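The compound was tested at five concentrations on cells cultured in 96-well plates, with a 48-hour exposure period. Here, GI50 denotes the concentration required for 50% inhibition of growth. TGI: total growth inhibition.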
Experiments:
Assay in all cases: NCI tumour cell line growth inhibition, 48 h
786-0 renal = test system: 786-0 renal
A498 renal = test system: A498 renal
A549 NSCLC = test system: A549 NSCLC
ACHN renal = test system: ACHN renal
BT-549 breast = test system: BT-549 breast
CAKI-1 renal = test system: CAKI-1 renal
CCRF-CEM leukemia = test system: CCRF-CEM leukemia
COLO 205 colon = test system: COLO 205 colon
DU-145 prostate = test system: DU-145 prostate
EKVX NSCLC = test system: EKVX NSCLC
HCC-2998 colon = test system: HCC-2998 colon
HCT-116 colon = test system: HCT-116 colon
HCT-15 colon = test system: HCT-15 colon
HL-60(TB) leukemia = test system: HL-60(TB) leukemia
HOP-62 NSCLC = test system: HOP-62 NSCLC
HOP-92 NSCLC = test system: HOP-92 NSCLC
HS 578T breast = test system: HS 578T breast
HT29 colon = test system: HT29 colon
IGROV1 ovarian = test system: IGROV1 ovarian
K-562 leukemia = test system: K-562 leukemia
KM12 colon = test system: KM12 colon
LOX IMVI melanoma = test system: LOX IMVI melanoma
M14 melanoma = test system: M14 melanoma
MALME-3M melanoma = test system: MALME-3M melanoma
MCF7 breast = test system: MCF7 breast
MDA-MB-231 breast = test system: MDA-MB-231 breast
MDA-MB-435 = test system: MDA-MB-435
MDA-MB-468 breast = test system: MDA-MB-468 breast
MOLT-4 leukemia = test system: MOLT-4 leukemia
NCI-H226 lung = test system: NCI-H226 lung
NCI-H23 lung = test system: NCI-H23 lung
NCI-H460 lung = test system: NCI-H460 lung
NCI-H522 lung = test system: NCI-H522 lung
NCI/ADR-RES ovarian = test system: NCI/ADR-RES ovarian
OVCAR-3 ovarian = test system: OVCAR-3 ovarian
OVCAR-4 ovarian = test system: OVCAR-4 ovarian
OVCAR-5 ovarian = test system: OVCAR-5 ovarian
OVCAR-8 ovarian = test system: OVCAR-8 ovarian
PC-3 prostate = test system: PC-3 prostate
RPMI-8226 leukemia = test system: RPMI-8226 leukemia
RXF 393 renal = test system: RXF 393 renal
SF-268 CNS = test system: SF-268 CNS
SF-295 CNS = test system: SF-295 CNS
SF-539 CNS = test system: SF-539 CNS
SK-MEL-2 melanoma = test system: SK-MEL-2 melanoma
SK-MEL-28 melanoma = test system: SK-MEL-28 melanoma
SK-MEL-5 melanoma = test system: SK-MEL-5 melanoma
SK-OV-3 ovarian = test system: SK-OV-3 ovarian
SN12C renal = test system: SN12C renal
SNB-19 CNS = test system: SNB-19 CNS
SNB-75 CNS = test system: SNB-75 CNS
SR leukemia = test system: SR leukemia
SW-620 colon = test system: SW-620 colon
T-47D breast = test system: T-47D breast
TK-10 renal = test system: TK-10 renal
U251 CNS = test system: U251 CNS
UACC-257 melanoma = test system: UACC-257 melanoma
UACC-62 melanoma = test system: UACC-62 melanoma
UO-31 renal = test system: UO-31 renal

CCC(C)S(=O)(=O)c1oc(-c2ccc(C)cc2)nc1S(=O)(=O)c1ccccc1 (stereo not drawn)
GI50 (786-0 renal): 1.67 µM
TGI (786-0 renal): 3.37 µM
GI50 (A498 renal): 16.9 µM
TGI (A498 renal): 30.7 µM
GI50 (A549 NSCLC): 13.5 µM
TGI (A549 NSCLC): 32.3 µM
GI50 (ACHN renal): 1.65 µM
TGI (ACHN renal): 3.01 µM
GI50 (BT-549 breast): 1.81 µM
TGI (BT-549 breast): 3.42 µM
GI50 (CAKI-1 renal): 1.53 µM
TGI (CAKI-1 renal): 3.15 µM
GI50 (CCRF-CEM leukemia): 0.287 µM
TGI (CCRF-CEM leukemia): 1.33 µM
GI50 (COLO 205 colon): 2.67 µM
TGI (COLO 205 colon): 6.02 µM
GI50 (DU-145 prostate): 1.98 µM
TGI (DU-145 prostate): 4.57 µM
GI50 (EKVX NSCLC): 1.98 µM
TGI (EKVX NSCLC): 4.21 µM
GI50 (HCC-2998 colon): 1.74 µM
TGI (HCC-2998 colon): 3.3 µM
GI50 (HCT-116 colon): 1.52 µM
TGI (HCT-116 colon): 3.62 µM
GI50 (HCT-15 colon): 1.45 µM
TGI (HCT-15 colon): 3.18 µM
GI50 (HL-60(TB) leukemia): 1.6 µM
TGI (HL-60(TB) leukemia): 4.91 µM
GI50 (HOP-62 NSCLC): 15.8 µM
TGI (HOP-62 NSCLC): 33.2 µM
GI50 (HOP-92 NSCLC): 2.27 µM
TGI (HOP-92 NSCLC): 6.37 µM
GI50 (HS 578T breast): 2.18 µM
TGI (HS 578T breast): 7.36 µM
GI50 (HT29 colon): 2.04 µM
TGI (HT29 colon): 4.86 µM
GI50 (IGROV1 ovarian): 1.96 µM
TGI (IGROV1 ovarian): 3.75 µM
GI50 (K-562 leukemia): 1.38 µM
TGI (K-562 leukemia): > 100 µM
GI50 (KM12 colon): 8.37 µM
TGI (KM12 colon): 23.4 µM
GI50 (LOX IMVI melanoma): 1.23 µM
TGI (LOX IMVI melanoma): 2.58 µM
GI50 (M14 melanoma): 1.73 µM
TGI (M14 melanoma): 3.83 µM
GI50 (MALME-3M melanoma): 1.65 µM
TGI (MALME-3M melanoma): 3.03 µM
GI50 (MCF7 breast): 1.2 µM
TGI (MCF7 breast): 2.86 µM
GI50 (MDA-MB-231 breast): 1.66 µM
TGI (MDA-MB-231 breast): 3.15 µM
GI50 (MDA-MB-435): 1.74 µM
TGI (MDA-MB-435): 3.85 µM
GI50 (MDA-MB-468 breast): 1.43 µM
TGI (MDA-MB-468 breast): 2.99 µM
GI50 (MOLT-4 leukemia): 1.45 µM
TGI (MOLT-4 leukemia): > 100 µM
GI50 (NCI-H226 lung): 12.5 µM
TGI (NCI-H226 lung): 30.5 µM
GI50 (NCI-H23 lung): 1.76 µM
TGI (NCI-H23 lung): 3.55 µM
GI50 (NCI-H460 lung): 3.13 µM
TGI (NCI-H460 lung): 12.1 µM
GI50 (NCI-H522 lung): 1.31 µM
TGI (NCI-H522 lung): 2.77 µM
GI50 (NCI/ADR-RES ovarian): 2.35 µM
TGI (NCI/ADR-RES ovarian): 5.7 µM
GI50 (OVCAR-3 ovarian): 1.63 µM
TGI (OVCAR-3 ovarian): 3.23 µM
GI50 (OVCAR-4 ovarian): 2.67 µM
TGI (OVCAR-4 ovarian): 7.84 µM
GI50 (OVCAR-5 ovarian): 2.83 µM
TGI (OVCAR-5 ovarian): 9.59 µM
GI50 (OVCAR-8 ovarian): 3.09 µM
TGI (OVCAR-8 ovarian): 10.7 µM
GI50 (PC-3 prostate): 3.14 µM
TGI (PC-3 prostate): 11.2 µM
GI50 (RPMI-8226 leukemia): 2.16 µM
TGI (RPMI-8226 leukemia): 8.17 µM
GI50 (RXF 393 renal): 1.48 µM
TGI (RXF 393 renal): 3.1 µM
GI50 (SF-268 CNS): 2.65 µM
TGI (SF-268 CNS): 8.81 µM
GI50 (SF-295 CNS): 11.3 µM
TGI (SF-295 CNS): 23.4 µM
GI50 (SF-539 CNS): 1.67 µM
TGI (SF-539 CNS): 3.03 µM
GI50 (SK-MEL-2 melanoma): 4.1 µM
TGI (SK-MEL-2 melanoma): 16.2 µM
GI50 (SK-MEL-28 melanoma): 1.71 µM
TGI (SK-MEL-28 melanoma): 3.14 µM
GI50 (SK-MEL-5 melanoma): 2.99 µM
TGI (SK-MEL-5 melanoma): 11.6 µM
GI50 (SK-OV-3 ovarian): 17.2 µM
TGI (SK-OV-3 ovarian): 33.3 µM
GI50 (SN12C renal): 1.72 µM
TGI (SN12C renal): 3.34 µM
GI50 (SNB-19 CNS): 12.9 µM
TGI (SNB-19 CNS): 25.5 µM
GI50 (SNB-75 CNS): 3.86 µM
TGI (SNB-75 CNS): 17 µM
GI50 (SR leukemia): 2.73 µM
TGI (SR leukemia): > 100 µM
GI50 (SW-620 colon): 1.13 µM
TGI (SW-620 colon): 2.47 µM
GI50 (T-47D breast): 1.87 µM
TGI (T-47D breast): 4.41 µM
GI50 (TK-10 renal): 1.73 µM
TGI (TK-10 renal): 3.44 µM
GI50 (U251 CNS): 15.5 µM
TGI (U251 CNS): 31.2 µM
GI50 (UACC-257 melanoma): 1.89 µM
TGI (UACC-257 melanoma): 4.24 µM
GI50 (UACC-62 melanoma): 1.76 µM
TGI (UACC-62 melanoma): 3.75 µM
GI50 (UO-31 renal): 1.52 µM
TGI (UO-31 renal): 2.85 µM

— PubChem BioAssay (NCI)
